System: human amnion cells (FL cells)
Experiment: neutral red uptake cytotoxicity test
Format: cell-based
Settings: 24 h at 37° C.
Method: In this test, adherent cultures of human amnion cells (FL cells) are incubated for 24 h at 37° C. with the desired concentration of the test substance in complete MEM culture medium with 5% FBS in a 5% CO2/air atmosphere. The culture medium and test substance are then removed, and new culture medium with neutral red is added. Since vital FL cells take up the dye neutral red in their lysosomes, the intensity of the eluted red coloration is correlated with the proportion of living cells. The intensity is automatically determined by the absorbance at a 540 nm test wavelength/655 nm reference wavelength. Information about the cytotoxic activity of the test substance can be obtained by comparison with a control group that was incubated with phosphate-buffered salt solution (PBS) instead of with the test substance. In addition, this model can be used to test and compare different formulations.
In the present test, different concentrations of octenidine dihydrochloride in PBS and Octenisept® (containing octenidine dihydrochloride and phenoxyethanol) were compared with each other and with PBS. The concentration values refer to the concentration of octenidine dihydrochloride.
The measured absorbances are plotted in FIGS. 1-2. Each measurement is based on 32 individual measurements. Inferential statistical analysis was performed by the U-test. […]

CCCCCCCCN=c1ccn(CCCCCCCCCCn2ccc(=NCCCCCCCC)cc2)cc1.Cl.Cl [octenidine dihydrochloride]
cytotoxic activity relative to comparable concentrations in Octenisept: significantly lower
absorbance (neutral red, 540 nm/655 nm) relative to Octenisept (all tested concentrations, U-test): significantly elevated

From patent US20040092588A1, “Antiseptic for wounds and mucous membranes” (priority 2001, published 2004)
